Test [1] has as its system COS-I cells. The test can be described thus: FRAP of Src-GFP on macropinosomes. It is filed as cell-based. To be noted: cycloheximide-treated COS-I cells, pretreated 10 min with 1 mM NEM or 0.5% tannic acid. How it is done:
A-D: FRAP analysis of Src-GFP was performed in COS-I cells treated with cycloheximide. Cells expressing Src-GFP were pretreated with nothing (control) (A), I mM NEM (B), or 0.5% tannic acid (C) for 10 min. Enclosed areas (yellow circles) were photobleached and cells were monitored at 5-sec (A and C) or 60-sec intervals (B) for 10 min. Mean fluorescence intensities on macropinosomes were measured, and results are means±SD (control, n=4; NEM, n=3; Tannic acid, n=5). N, nucleus. Bars 5 μm. E: Equal amounts of lysates from S100 and P100 fractions of Src-GFP-expressing COS-I cells were analyzed by Western blotting with anti-Src, anti-cPLA2 (cytosol marker), and anti-desmoglein (plasma membrane marker) antibodies.
For live-cell imaging, cells cultured in 35-mm glass-based dishes were transiently transfected with plasmid DNA on the preceding day. Time-lapse monitoring was performed using a Fluoview FV5OO with a 40×1.00 oil objective. Images were obtained at low power laser (0.3-3.0% laser) using the 488 nm line of an argon laser. FRAP was performed as described (Kasahara et at., 2004). If necessary, COS-I cells were treated with 200 μg/ml cycloheximide (Sigma-Aldrich) for 2 h before images were obtained. […] Mean fluorescence intensities were quantitated using Fluoview Tiempo time course version 4.2 software. […]

Test [2] concerns 10T½ cells. As to the kind of experiment: PMA-stimulated macropinocytosis (RITC-dextran-labeled macropinosomes). To be noted: 10T½ cells pretreated with 5 μM SU6656 for 30 min, then 200 nM PMA plus 1 mg/ml RITC-dextran for 20 min. The format is cell-based, mouse. The method, then:
Data represent means±SD from three independent experiments. […] For comparison, the open bar is a reproduction of the data of Src-CFP in FIG. 2D. B: COS-1 cells transfected with c-Src plus Src(SH4-Unique)-GFP were cultured for 24 h and visualized with anti-Src (red) immunofluorescence and GFP fluorescence (green). C: 10T½ cells transfected with Src(SH4-Unique)-GFP (control) were treated with 200 nM PMA plus 1 mg/ml RITC-dextran for 15 min (1 PMA). D: 10T½ cells expressing Src(SH4-Unique)-GFP were stimulated with 200 nM PMA and cells were monitored at 30-sec intervals. The time of PMA addition is indicated as 0 sec (00′00″). E: 10T½ cells expressing Lyn(SH4-Unique)-GFP were treated with 200 nM PMA for 30 min and imaged by GFP fluorescence and Nomarski optics. F: 10T½ cells were pretreated with 5 μM SU6656 or none for 30 min and then stimulated with 200 nM PMA plus 1 mg/ml RITC-dextran for 20 min. […] Data represent means±SD from three independent experiments. […] Arrows indicate macropinosomes. N, nucleus. Bars, 10 μm. Macropinosomes wider than 2 μm labeled by c-Src or mutants were counted. All values were expressed as means±D from three independent experiments. Rhodamine B-isothiocyanate (RITC)-dextran (Mr 70,000), PMA, and wortmannin were from Sigma-Aldrich. SU6656 (Blake et al., 2000) was from Calbiochem. EGF was a kind gift of M. N. Fukuda.

The subject of test [3] is HeLa cells. As to the kind of experiment: EGF-induced macropinosome formation marked with Src(SH4-Unique)-GFP. The format is cell-based, human. Particulars: serum-starved HeLa cells expressing Src(SH4-Unique)-GFP, pretreated 30 min with 5 μM SU6656 or 200 nM wortmannin, then 50 ng/ml EGF for 15 min. The method, then: During stimulation, cells were treated with 1 mg/ml RITC-dextran (B). White arrows indicate macropinosomes. […] The number of macropinosomes associated with Src(SH4-Unique)-GFP per 200 cells is shown. Data represent means±SD from three independent experiments. […] Equal amounts of lysates (input lysates) were analyzed by Western blotting with anti-pTyr and anti-actin antibodies. c-Src immunoprecipitates from lysates were analyzed by Western blotting with anti-Src[Y^418] and anti-Src antibodies. c-Src kinase activity was quantitated by measuring signal intensity using anti-Src[pY^418] antibody and normalized to the corresponding signal intensity detected by anti-Src. Results are expressed as mean values (fold) relative to the specific activity of c-Src in unstimulated control cells. […] The number of Src:(SH4-Unique)-GFP-labeled macropinosomes per 200 HeLa (left) or 100 A431 (right) cells was counted. Data represent means±SD from three independent experiments. […] F: Lysates were analyzed by Western blotting with anti-Src[Y^418], anti-Src, anti-pTyr, and anti-actin antibodies. […] White arrows indicate macropinosomes containing RITC-dextran. […] I: Co-localization of RITC-dextran with cathepsin D in macropinosomes was quantitated. […] Macropinosomes wider than 2 μm labeled by c-Src or mutants were counted. All values were expressed as means±D from three independent experiments. […]

Test [4] addresses EGFR (Homo sapiens, UniProt P00533). As to the kind of experiment: EGFR activation by Western blotting of lysates with anti-pTyr. The format is cell-based. To be noted: serum-starved HeLa cells pretreated with 5 μM SU6656, EGF for 15 min. Background: A western blot detects proteins with antibodies after separation by electrophoresis.
Protocol: F: Lysates were analyzed by Western blotting with anti-Src[Y^418], anti-Src, anti-pTyr, and anti-actin antibodies. […] Cell lysates were prepared in Triton X-100 lysis buffer (50 mM HEPES, pH 7.4, 10% glycerol, 1% Triton X-100, 4 mM EDTA, 100 mM NaF, and 1 mM Na3VO4) containing protease inhibitors.
The target in test [5] is T1, c-Src (Homo sapiens, UniProt P12931).
T1 construct: endogenous in cells; host or cells: HeLa (serum-starved, EGF-stimulated)
The test can be described thus: c-Src kinase activity in immunoprecipitates by Western blotting with anti-Src[pY418]. It is filed as cell-based. To be noted: serum-starved HeLa cells pretreated with 5 μM SU6656, EGF for 15 min.
Protocol: Results are expressed as mean values (fold) relative to the specific activity of c-Src in unstimulated control cells. […] F: Lysates were analyzed by Western blotting with anti-Src[Y^418], anti-Src, anti-pTyr, and anti-actin antibodies. […] Western blotting and immunoprecipitation were as described (Hirao et al., 1997; Mera et al., 1999; Yamaguchi et al., 2001; Kasahara et al., 2004). Cell lysates were prepared in Triton X-100 lysis buffer (50 mM HEPES, pH 7.4, 10% glycerol, 1% Triton X-100, 4 mM EDTA, 100 mM NaF, and 1 mM Na3VO4) containing protease inhibitors. For immunoprecipitation, lysates were incubated with protein G-Sepharose beads (Amersham) precoated with anti-Src (#327) overnight at 4° C.

Entries after “also recorded” stand apart in the source; their conditions may differ.

Data on three compounds can be found in US8343759B2, “Mammalian cell line expressing inducible c-Src” (National University Corporation Chiba University, priority 2007, dated 2013).

EGFR, sequence (P00533 25-1210): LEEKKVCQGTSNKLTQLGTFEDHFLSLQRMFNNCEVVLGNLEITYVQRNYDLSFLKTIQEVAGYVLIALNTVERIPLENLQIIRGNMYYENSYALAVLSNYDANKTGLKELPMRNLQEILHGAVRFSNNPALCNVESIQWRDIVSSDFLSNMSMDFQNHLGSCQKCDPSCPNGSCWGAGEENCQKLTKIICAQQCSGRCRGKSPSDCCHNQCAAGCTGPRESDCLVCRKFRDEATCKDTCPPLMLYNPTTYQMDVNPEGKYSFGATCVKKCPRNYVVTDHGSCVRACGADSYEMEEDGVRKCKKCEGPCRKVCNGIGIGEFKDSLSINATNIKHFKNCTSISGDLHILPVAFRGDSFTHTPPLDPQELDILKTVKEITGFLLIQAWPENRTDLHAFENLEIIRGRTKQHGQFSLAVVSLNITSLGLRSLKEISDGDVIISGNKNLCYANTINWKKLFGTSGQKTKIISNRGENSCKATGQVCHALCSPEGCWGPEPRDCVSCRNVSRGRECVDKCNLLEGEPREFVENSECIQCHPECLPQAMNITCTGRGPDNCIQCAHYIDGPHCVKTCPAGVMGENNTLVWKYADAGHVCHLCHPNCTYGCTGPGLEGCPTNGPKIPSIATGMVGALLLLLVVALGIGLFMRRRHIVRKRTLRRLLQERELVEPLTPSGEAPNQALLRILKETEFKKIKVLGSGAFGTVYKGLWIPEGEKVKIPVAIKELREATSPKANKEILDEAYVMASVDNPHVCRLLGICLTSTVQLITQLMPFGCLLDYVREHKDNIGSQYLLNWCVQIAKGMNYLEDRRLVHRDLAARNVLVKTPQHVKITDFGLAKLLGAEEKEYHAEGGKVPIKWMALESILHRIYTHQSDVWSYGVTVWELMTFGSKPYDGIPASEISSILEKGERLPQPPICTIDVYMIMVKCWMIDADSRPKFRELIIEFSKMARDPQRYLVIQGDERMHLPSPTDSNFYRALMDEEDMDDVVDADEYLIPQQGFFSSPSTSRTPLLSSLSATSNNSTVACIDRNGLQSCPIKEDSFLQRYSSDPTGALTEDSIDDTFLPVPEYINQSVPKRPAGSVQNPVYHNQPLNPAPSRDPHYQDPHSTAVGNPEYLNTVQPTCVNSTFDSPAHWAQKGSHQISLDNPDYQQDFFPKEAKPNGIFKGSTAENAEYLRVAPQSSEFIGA
T1 sequence (P12931 whole entry): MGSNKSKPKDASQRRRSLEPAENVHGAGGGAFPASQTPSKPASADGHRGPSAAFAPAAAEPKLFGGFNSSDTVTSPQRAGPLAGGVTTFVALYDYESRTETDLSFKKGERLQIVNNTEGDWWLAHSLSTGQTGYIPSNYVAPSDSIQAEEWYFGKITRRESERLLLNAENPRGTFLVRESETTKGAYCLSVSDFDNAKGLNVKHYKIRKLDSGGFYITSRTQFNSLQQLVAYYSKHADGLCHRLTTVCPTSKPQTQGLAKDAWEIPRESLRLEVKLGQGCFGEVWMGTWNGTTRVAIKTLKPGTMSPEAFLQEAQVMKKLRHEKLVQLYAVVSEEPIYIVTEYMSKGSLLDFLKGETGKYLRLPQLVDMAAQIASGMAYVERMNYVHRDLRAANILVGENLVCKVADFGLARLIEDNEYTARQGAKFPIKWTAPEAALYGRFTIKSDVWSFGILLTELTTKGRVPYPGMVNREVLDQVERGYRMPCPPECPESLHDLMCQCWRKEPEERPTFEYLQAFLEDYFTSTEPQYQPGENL

On to `CCN1C(=O)C=CC1=O` [NEM, N-ethyl maleimide], for which the “inhibition of fluorescence recovery of Src-GFP on macropinosomes” value in test [1] is “inhibited”.
For `CN(C)S(=O)(=O)c1ccc2c(c1)/C(=C/c1cc3c([nH]1)CCCC3)C(=O)N2` [SU6656], the “inhibition of PMA-stimulated macropinocytosis” value in test [2] was “not significant; also recorded: not inhibited; also recorded: did not inhibit”. Also, the “inhibition of EGF-induced macropinosome formation” value in test [3] was “partly inhibited”. For the same compound, the “effect on EGFR activation” value in test [4] was “without affecting”. Further, in test [5], the “effect on c-Src activity” value is “decreased c-Src activity below basal levels”.
Regarding `O=C(OC[C@H]1O[C@@H](OC(=O)c2cc(O)c(O)c(OC(=O)c3cc(O)c(O)c(O)c3)c2)[C@H](OC(=O)c2cc(O)c(O)c(OC(=O)c3cc(O)c(O)c(O)c3)c2)[C@@H](OC(=O)c2cc(O)c(O)c(OC(=O)c3cc(O)c(O)c(O)c3)c2)[C@@H]1OC(=O)c1cc(O)c(O)c(OC(=O)c2cc(O)c(O)c(O)c2)c1)c1cc(O)c(O)c(OC(=O)c2cc(O)c(O)c(O)c2)c1` [tannic acid], in test [1], the “inhibition of fluorescence recovery of Src-GFP on macropinosomes” value is “partly inhibited”.
